Non-standard residues stand in square brackets, D forms with d. Residues, ends and D or L forms follow the SMILES beside them. *: point of attachment. Oleoyl = CCCCCCCC/C=C\CCCCCCCC(=O)*; Stearoyl = CCCCCCCCCCCCCCCCCC(=O)*; Palmitoyl = CCCCCCCCCCCCCCCC(=O)*; Nle = CCCC[CH](N)C(=O)O; Cbz = O=C(OCc1ccccc1)*
Tests used:
prolyl endopeptidase = prolyl endopeptidase (Elizabethkingia meningoseptica, UniProt P27028); test: Measurement of anti-prolyl endopeptidase activity (decomposition of Z-glycyl-proline-β-naphthylamide); format: biochemical; conditions: substrate Z-glycyl-proline-β-naphthylamide, phosphate buffer pH 7.0
prolyl endopeptidase, sequence (P27028 21-705): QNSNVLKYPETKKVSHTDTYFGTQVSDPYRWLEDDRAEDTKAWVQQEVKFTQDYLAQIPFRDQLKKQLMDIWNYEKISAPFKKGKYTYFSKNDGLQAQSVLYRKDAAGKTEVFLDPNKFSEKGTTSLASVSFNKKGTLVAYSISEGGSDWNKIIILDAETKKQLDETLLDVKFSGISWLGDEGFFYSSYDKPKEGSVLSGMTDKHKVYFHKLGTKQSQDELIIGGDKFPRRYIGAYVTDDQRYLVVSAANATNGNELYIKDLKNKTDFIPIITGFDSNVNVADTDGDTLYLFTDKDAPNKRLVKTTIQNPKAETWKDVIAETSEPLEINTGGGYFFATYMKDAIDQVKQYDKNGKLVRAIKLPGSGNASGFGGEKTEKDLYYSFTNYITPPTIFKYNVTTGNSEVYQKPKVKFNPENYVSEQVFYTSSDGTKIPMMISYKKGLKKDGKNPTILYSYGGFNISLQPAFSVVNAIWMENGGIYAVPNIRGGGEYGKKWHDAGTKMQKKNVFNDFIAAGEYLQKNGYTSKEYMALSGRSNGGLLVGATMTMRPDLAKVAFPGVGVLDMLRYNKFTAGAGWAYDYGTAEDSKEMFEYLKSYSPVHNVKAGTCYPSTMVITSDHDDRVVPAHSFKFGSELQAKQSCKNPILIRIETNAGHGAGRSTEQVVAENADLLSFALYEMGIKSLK
Experimental: The method of Yoshimoto and Tsuru (T. Yoshimoto and D. Tsuru, Agr. Biol. Chem. 42, 2417, 1978) was used to measure the anti-prolyl endopeptidase activities of several compounds of the present invention. A mixture of 0.0025M Z-glycyl-proline-β-naphthylamide (0.25 ml), 0.1M phosphate buffer (pH, 7.0; 0.99 ml) and a solution of a particular anti-prolyl endopeptidase compound (0.01 ml) was incubated in a test tube at 37° C. for 3 minutes. Thereafter, 0.1 ml of a solution of prolyl endopeptidase (0.2 U/ml) was added and the mixture was heated at 35° C. for 10 minutes. After the reaction, 2.0 ml of Triton X-100 in 1M acetate buffer (pH, 4.0) was added to the reaction mixture until the final concentration of the surfactant was 10%. The mixture was left at room temperature for 15 minutes and the absorbance (a) at 410 nm was measured.
A sample for blind test was prepared by using the buffer instead of the anti-prolyl endopeptidase compound and its absorbance (b) was also measured. The percent inhibition of prolyl endopeptidase was calculated by the formula: ((b-a)/b)×100, and the amount of a specific compound to achieve 50% inhibition (IC50) was determined.

[1] = test system: experimental amnesia caused in rats by scopolamine; test: Preventive effect against experimental amnesia caused in rats by scopolamine (passive avoidance learning); format: in vivo, Wister male rats; conditions: for Avoidance time 24 hrs. later / Avoidance time 48 hrs. later / No. of amnesic rats/No. of rats tested / Percentage amnesia: scopolamine 3 mg/kg i.p. after learning
Experimental: Several of the anti-prolyl endopeptidase compounds of the present invention were checked for their ability to prevent the inhibition of long-term memory fixation by scopolamine. Solutions of physiological saline (0.3 ml) that contained selected compounds of the present inventions in varying amounts ([…], 0.25 mg, 0.1 mg, 0.025 mg and 0.010 mg/kg) were administered intraperitoneally once a day to Wister male rats (100-120 g). One hour after the administration, electric shocks (1.7 mA) were applied to the rats so that they would acquire passive avoidance learning. Immediately thereafter, scopolamine was administered intraperitoneally to each rat in an amount of 3 mg per kg of body weight.
The result of the test was assessed both 24 hours and 48 hours after the administration of scopolamine. The number of amnesic rats and of sound rats was counted for each of the control group (rats to which the test compounds had not been administered but to which only scopolamine and physiological saline had been administered intraperitoneally and the treated group (rats to which both the test compound and scopolamine had been administered). The results are shown in Table 3.

[2] = test system: experimental amnesia caused in rats by scopolamine; test: as above; format: in vivo, Wister male rats; conditions: for Avoidance time 48 hrs. later: sample 1 mg/kg i.p., scopolamine 3 mg/kg i.p. after learning
[3] = administered orally (so in the source) in an amount of 1 mg/kg
[4] = dose of 0.01 mg/kg (orally as printed)
[5] = administered orally (so in the source) in an amount of 0.025 mg/kg
[6] = administered orally (so in the source) in an amount of 0.1 mg/kg

## CCCCCCCC/C=C\CCCCCCCC(=O)NC(CCSC)C(=O)N1CCCC1C=O (stereo not drawn) [SUAM 1214, oleoyl-Met-Pro-CHO] (Oleoyl-Met-Pro-aldehyde; configuration not given here)
Prolyl endopeptidase
  IC50 (amount of compound to achieve 50% inhibition): 0.6 ng/test tube
[1]; [3]
  anti-amnesic action (in words): no remarkable effect
[1]; [4]
  anti-amnesic action (in words): remarkable anti-amnesic action
[1]; sample 10 μg/kg i.p.
  Avoidance time 24 hrs. later: 300 s
  Avoidance time 48 hrs. later: 300 s
  No. of amnesic rats/No. of rats tested: 0/10
  Percentage amnesia: 0%
[1]; sample 25 μg/kg i.p.
  Avoidance time 24 hrs. later: 300 s
  Avoidance time 48 hrs. later: 300 s
  No. of amnesic rats/No. of rats tested: 0/10
  Percentage amnesia: 0%
[1]; sample 100 μg/kg i.p.
  Avoidance time 24 hrs. later: 300 s
  Avoidance time 48 hrs. later: 276.4 s
  No. of amnesic rats/No. of rats tested: 1/10
  Percentage amnesia: 10%
[1]; sample 250 μg/kg i.p.
  Avoidance time 24 hrs. later: 240.6 s
  Avoidance time 48 hrs. later: 226.0 s
  No. of amnesic rats/No. of rats tested: 2/10
  Percentage amnesia: 20%
[1]; sample 1 mg/kg i.p.
  Avoidance time 24 hrs. later: 73.0 s
  No. of amnesic rats/No. of rats tested: 6/10
  Percentage amnesia: 60%
[2]; [5]
  anti-amnesic action (in words): considerably excellent anti-amnesic action
[2]
  Avoidance time 48 hrs. later: 103.0 s

## CCCCCCCC/C=C\CCCCCCCC(=O)NC(CC(C)C)C(=O)NC(CC(C)C)C(=O)N1CCCC1C=O (stereo not drawn) [SUAM 1158, oleoyl-Leu-Leu-Pro-CHO] (Oleoyl-Leu-Leu-Pro-aldehyde; configuration not given here)
Prolyl endopeptidase
  IC50 (amount of compound to achieve 50% inhibition): 80.0 ng/test tube
[1]; sample 25 μg/kg i.p.
  Avoidance time 24 hrs. later: 300 s
  Avoidance time 48 hrs. later: 300 s
  No. of amnesic rats/No. of rats tested: 0/10
  Percentage amnesia: 0%
[1]; sample 100 μg/kg i.p.
  Avoidance time 24 hrs. later: 300 s
  Avoidance time 48 hrs. later: 300 s
  No. of amnesic rats/No. of rats tested: 0/10
  Percentage amnesia: 0%
[2]; [5]
  anti-amnesic action (in words): excellent effect
[2]; [6]
  anti-amnesic action (in words): strong anti-amnesic action

## CCCCCCCC/C=C\CCCCCCCC(=O)NC(CC(C)C)C(=O)N1CCCC1C=O (stereo not drawn) [SUAM 1140, Oleoyl-Leu-Pro-CHO] (Oleoyl-Leu-Pro-aldehyde; configuration not given here)
Prolyl endopeptidase
  IC50 (amount of compound to achieve 50% inhibition): 0.8 ng/test tube
[1]; [3]
  anti-amnesic action (in words): no remarkable effect
[1]; sample 10 μg/kg i.p.
  Avoidance time 24 hrs. later: 185.0 s
  Avoidance time 48 hrs. later: 189.0 s
  No. of amnesic rats/No. of rats tested: 2/5
  Percentage amnesia: 40%
[1]; sample 25 μg/kg i.p.
  Avoidance time 24 hrs. later: 300 s
  Avoidance time 48 hrs. later: 300 s
  No. of amnesic rats/No. of rats tested: 0/5
  Percentage amnesia: 0%
[1]; sample 100 μg/kg i.p.
  Avoidance time 24 hrs. later: 300 s
  Avoidance time 48 hrs. later: 300 s
  No. of amnesic rats/No. of rats tested: 0/5
  Percentage amnesia: 0%
[1]; sample 250 μg/kg i.p.
  Avoidance time 24 hrs. later: 263 s
  Avoidance time 48 hrs. later: 284 s
  No. of amnesic rats/No. of rats tested: 1/5
  Percentage amnesia: 20%
[1]; sample 1 mg/kg i.p.
  Avoidance time 24 hrs. later: 73.0 s
  No. of amnesic rats/No. of rats tested: 3/5
  Percentage amnesia: 60%
[2]; [6]
  anti-amnesic action (in words): considerably excellent anti-amnesic action
[2]
  Avoidance time 48 hrs. later: 103.0 s

## linoleoyl-Leu-Pro-CHO [SUAM 1157]
Prolyl endopeptidase
  IC50 (amount of compound to achieve 50% inhibition): 0.6 ng/test tube

## CCCCCCCC/C=C\CCCCCCCC(=O)NC(C)C(=O)N1CCCC1C=O (stereo not shown) [SUAM 1092, oleoyl-Ala-pro-CHO]
Prolyl endopeptidase
  IC50 (amount of compound to achieve 50% inhibition): 12.0 ng/test tube

## CCCCCCCCCCCCCCCC(=O)NC(CC(C)C)C(=O)N1CCCC1C=O (stereo not drawn) [SUAM 1155, palmitoyl-Leu-Pro-CHO] (Palmitoyl-Leu-Pro-aldehyde; configuration not given here)
Prolyl endopeptidase
  IC50 (amount of compound to achieve 50% inhibition): 0.7 ng/test tube
[1]; sample 100 μg/kg i.p.
  Avoidance time 24 hrs. later: 300 s
  Avoidance time 48 hrs. later: 300 s
  No. of amnesic rats/No. of rats tested: 0/10
  Percentage amnesia: 0%
[2]; [6]
  anti-amnesic action (in words): strong anti-amnesic action

## CCCCCCCC/C=C\CCCCCCCC(=O)NC(CCCC)C(=O)N1CCCC1C=O (stereo not drawn) [SUAM 1166, oleoyl-norLeu-Pro-CHO] (Oleoyl-[Nle]-Pro-aldehyde; configuration not given here)
Prolyl endopeptidase
  IC50 (amount of compound to achieve 50% inhibition): 0.8 ng/test tube
[1]; sample 25 μg/kg i.p.
  Avoidance time 24 hrs. later: 300 s
  Avoidance time 48 hrs. later: 300 s
  No. of amnesic rats/No. of rats tested: 0/10
  Percentage amnesia: 0%
[2]; [5]
  anti-amnesic action (in words): strong anti-amnesic action

## CCCCCCCC/C=C\CCCCCCCC(=O)NC(CCC=O)C(=O)N1CCCC1C=O (stereo not shown) [SUAM 1217, oleoyl-Glu(CHO)-Pro-CHO]
Prolyl endopeptidase
  IC50 (amount of compound to achieve 50% inhibition): 0.3 ng/test tube

## CCCCCCCCCCCCCCCCCC(=O)NC(CC(C)C)C(=O)N1CCCC1C=O (stereo not drawn) [SUAM 1154, stearoyl-Leu-Pro-CHO] (Stearoyl-Leu-Pro-aldehyde; configuration not given here)
Prolyl endopeptidase
  IC50 (amount of compound to achieve 50% inhibition): 1.0 ng/test tube
[1]; sample 100 μg/kg i.p.
  Avoidance time 24 hrs. later: 300 s
  Avoidance time 48 hrs. later: 300 s
  No. of amnesic rats/No. of rats tested: 0/10
  Percentage amnesia: 0%
[2]; [6]
  anti-amnesic action (in words): strong anti-amnesic action

## CCCCCCCC/C=C\CCCCCCCC(=O)NC(C(=O)N1CCCC1C=O)C(C)C (stereo not drawn) [SUAM 1156, oleoyl-Val-Pro-CHO] (Oleoyl-Val-Pro-aldehyde; configuration not given here)
Prolyl endopeptidase
  IC50 (amount of compound to achieve 50% inhibition): 0.7 ng/test tube
[1]; [3]
  anti-amnesic action (in words): no remarkable effect
[1]; sample 100 μg/kg i.p.
  Avoidance time 24 hrs. later: 300 s
  Avoidance time 48 hrs. later: 276.4 s
  No. of amnesic rats/No. of rats tested: 1/10
  Percentage amnesia: 10%
[1]; sample 250 μg/kg i.p.
  Avoidance time 24 hrs. later: 240.6 s
  Avoidance time 48 hrs. later: 226.0 s
  No. of amnesic rats/No. of rats tested: 2/10
  Percentage amnesia: 20%
[1]; sample 1 mg/kg i.p.
  Avoidance time 24 hrs. later: 184.0 s
  No. of amnesic rats/No. of rats tested: 5/10
  Percentage amnesia: 50%
[2]; [6]
  anti-amnesic action (in words): considerably excellent anti-amnesic action
[2]
  Avoidance time 48 hrs. later: 119.8 s

## CCCCCCCC/C=C\CCCCCCCC(=O)N1CCCC1C(=O)N1CCCC1C=O (stereo not drawn) [SUAM 1215, Oleoyl-Pro-Pro-CHO] (Oleoyl-Pro-Pro-aldehyde; configuration not given here)
Prolyl endopeptidase
  IC50 (amount of compound to achieve 50% inhibition): 0.3 ng/test tube
[1]; [4]
  anti-amnesic action (in words): strong anti-amnesic action
[1]; sample 10 μg/kg i.p.
  Avoidance time 24 hrs. later: 300 s
  Avoidance time 48 hrs. later: 300 s
  No. of amnesic rats/No. of rats tested: 0/10
  Percentage amnesia: 0%
[1]; sample 25 μg/kg i.p.
  Avoidance time 24 hrs. later: 300 s
  Avoidance time 48 hrs. later: 300 s
  No. of amnesic rats/No. of rats tested: 0/10
  Percentage amnesia: 0%
[2]; [5]
  anti-amnesic action (in words): strong anti-amnesic action

## CCCCCCCC/C=C\CCCCCCCC(=O)NC(CCCCNC(=O)OCc1ccccc1)C(=O)N1CCCC1C=O (stereo not shown) [SUAM 1216, oleoyl-Lys(Z)-Pro-CHO] (Oleoyl-Lys(Cbz)-Pro-aldehyde; configuration not given here)
Prolyl endopeptidase
  IC50 (amount of compound to achieve 50% inhibition): 0.6 ng/test tube

— patent US4772587A, “Dipeptide derivative of fatty acid” (Suntory Limited, priority 1985, dated 1988)
